Measured values from US20080286815A1, “SPECTROPHOTOMETRIC ASSAY FOR HUMAN HISTONE DEACETYLASE 8” (THE UNIVERSITY OF AKRON, priority 2007, published 2008).
Values belong to the molecule of their own block, whether it stands above or below them. Ends that are not written are not given here.

How the values were obtained:
[1] = test system: HeLa nuclear extracts enriched in HDAC1 and 2; experiment: HPLC-based and DTNB-based assays with HeLa nuclear extracts; format: biochemical, human; details: for dethioacetylation by HeLa nuclear extracts: HDAC8 replaced with HeLa nuclear extracts, HPLC-based and DTNB-based assay formats; for kobs (deacetylation by HeLa nuclear extracts): 30 min; for kobs (deacetylation by HeLa nuclear extracts) / substrate turnover: HPLC analysis; for substrate turnover: at 30 min
Experimental: (§1) HPLC-based enzymatic assay. The HPLC data shown in FIG. 4 was generated using the following procedure. The HDAC8-catalyzed dethioacetylation reaction was performed in the same HDAC8 assay solution as above-described, except that no thioacetic acid was added but purified HDAC8 and its substrate (i.e. the above-described peptide ii) were added to final concentrations of 375 nM and 0.3 mM, respectively. An enzymatic reaction was initiated by the addition of HDAC8 at room temperature and was allowed to be incubated at room temperature until quenched at different time points with the following stop solution: 3.2 M guanidinium chloride in 100 mM of sodium phosphate (pH 6.8). One portion (40 uL) of the HDAC8 assay mixture was quenched with 80 uL of the above stop solution, and was analyzed as set forth above by RP-HPLC with a C18 analytical column (100 Å, 0.46×25 cm), eluting with the following gradient of double deionized water containing 0.05% (v/v) trifluoroacetic acid (mobile phase A) and acetonitrile containing 0.05% (v/v) trifluoroacetic acid (mobile phase B): linear increase from 0% B to 35% B from 0-40 min (1 mL/min), and ultraviolet (UV) monitoring at 214 nm. The enzymatically formed dethioacetylated product (i.e. the above-referenced peptide i) was confirmed by its comigration with the chemically synthesized authentic sample and by mass spectrometric analysis with MALDI-TOF, and was quantified by HPLC peak integration and comparison with that of the synthetic authentic sample. The same assay protocol was used when the HeLa nuclear extracts were used instead of human HDAC8. Nearly same assay protocols were used when purified HDAC1 and HDAC2 were employed instead of HDAC8, with the following exceptions: i) For HDAC1 assays, 50 mM Tris.HCl (pH 8.0) was used instead of 25 mM Tris.HCl (pH 8.0); ii) HDAC2 assays were performed at 30° C. instead of RT; iii) HDAC1 and HDAC2 assay solutions were all quenched with the following stop solution: 1.0 M HCl and 0.16 M acetic acid. These changes were instituted to more clearly assess the selectivity.
DTNB-based enzymatic assay. The DTNB data shown in FIG. 4 was generated using the following procedure. A second portion (300 µL) of the above HDAC8 assay mixture was quenched with 600 µL of the stop solution: 3.2 M guanidinium chloride in 100 mM of sodium phosphate (pH 6.8), and was analyzed by the DTNB-based assay procedure according to the invention, i.e. 60 min after the quench and DTNB (100 µL) addition, A412 was recorded for each sample derived at different time points of the same assay reaction. Again, the same assay protocol was used when the HeLa nuclear extracts were used instead of human HDAC8. To measure the kinetic parameters for the thioacetyl-lysine p53 peptide as an in vitro HDAC8 substrate, all the assay reactions contained 375 nM of HDAC8, a range of substrate concentrations varied around the Km value, and were allowed to proceed at room temperature for 1 hour before quenching. Reaction velocities were determined under initial condition (substrate turnover <10%). This experiment was performed twice, and each duplicate measurement agreed within 20%. By using a non-linear least squares approach with the computer program Kaleidagraph (Reading, Pa., USA), kinetic parameters (kcat and Km) were derived from the Michaelis-Menten plot based on the experimental data.
Assay with HeLa nuclear extracts. In order to examine the selectivity of our newly developed DTNB-based spectrophotometric assay among different classical HDAC enzymes, we initially performed both the HPLC-based and the DTNB-based assays with the HeLa nuclear extracts enriched in HDAC1 and 2. The procedures for the HDAC8 assay were followed.

purified human HDAC1 = purified human HDAC1 (Homo sapiens, UniProt Q13547); experiment: HPLC-based assay with purified HDAC1; format: biochemical; details: for dethioacetylation by HDAC1: purified HDAC1, HPLC-based assay format
Sequence of purified human HDAC1 (Q13547 whole entry): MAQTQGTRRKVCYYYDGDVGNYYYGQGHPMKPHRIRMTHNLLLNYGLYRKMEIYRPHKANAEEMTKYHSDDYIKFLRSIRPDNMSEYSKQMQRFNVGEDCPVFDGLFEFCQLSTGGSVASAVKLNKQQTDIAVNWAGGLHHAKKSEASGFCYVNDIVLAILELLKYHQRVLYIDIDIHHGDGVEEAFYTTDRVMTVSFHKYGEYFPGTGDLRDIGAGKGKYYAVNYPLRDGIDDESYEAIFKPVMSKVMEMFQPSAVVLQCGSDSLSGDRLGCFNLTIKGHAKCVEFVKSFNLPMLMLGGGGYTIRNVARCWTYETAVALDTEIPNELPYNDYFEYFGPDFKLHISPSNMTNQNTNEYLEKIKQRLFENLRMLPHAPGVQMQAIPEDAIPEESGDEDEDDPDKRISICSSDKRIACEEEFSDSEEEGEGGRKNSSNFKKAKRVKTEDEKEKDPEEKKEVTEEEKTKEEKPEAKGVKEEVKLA
Experimental: as §1, with “selectivity. […]” for “selectivity.”

purified human HDAC2 = purified human HDAC2 (Homo sapiens, UniProt Q92769); experiment: HPLC-based assay with purified HDAC2; format: biochemical; details: for dethioacetylation by HDAC2: purified HDAC2, 30° C., HPLC-based assay format
Sequence of purified human HDAC2 (Q92769 whole entry): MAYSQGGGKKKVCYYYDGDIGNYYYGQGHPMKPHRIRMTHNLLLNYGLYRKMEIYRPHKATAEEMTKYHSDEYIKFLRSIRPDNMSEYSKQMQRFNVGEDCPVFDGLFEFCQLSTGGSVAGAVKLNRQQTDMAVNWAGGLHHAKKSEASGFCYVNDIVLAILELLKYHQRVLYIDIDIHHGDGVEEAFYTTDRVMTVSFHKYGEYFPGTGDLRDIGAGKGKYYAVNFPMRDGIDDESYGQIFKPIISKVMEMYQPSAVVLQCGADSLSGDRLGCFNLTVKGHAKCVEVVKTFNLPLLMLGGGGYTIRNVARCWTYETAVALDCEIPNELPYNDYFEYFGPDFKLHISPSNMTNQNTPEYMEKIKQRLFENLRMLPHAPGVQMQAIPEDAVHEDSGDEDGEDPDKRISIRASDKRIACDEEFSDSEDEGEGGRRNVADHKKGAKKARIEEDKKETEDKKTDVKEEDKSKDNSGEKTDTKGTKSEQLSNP
Experimental: as §1, with “selectivity. […]” for “selectivity.”

[2] = listed as thioacetyl-lysin peptide

dethioacetylation by HDAC1 (purified human HDAC1): no detectable dethioacetylation
dethioacetylation by HDAC1 (purified human HDAC1; [2]): did not serve as a substrate
dethioacetylation by HDAC2 (purified human HDAC2): no detectable dethioacetylation
dethioacetylation by HDAC2 (purified human HDAC2; [2]): did not serve as a substrate
Molecule: CSCC[C@H](NC(=O)[C@H](CC(C)C)NC(=O)[C@H](CCCCNC(C)=S)NC(=O)[C@H](CCCCN)NC(=O)[C@H](Cc1c[nH]cn1)NC(=O)[C@H](CCCNC(=N)N)NC(=O)[C@H](CO)NC(=O)[C@@H](NC(=O)[C@H](CO)NC(=O)[C@H](CCC(N)=O)NC(=O)CNC(=O)[C@H](CCCCN)NC(=O)[C@@H](N)CCCCN)[C@@H](C)O)C(=O)N[C@@H](Cc1ccccc1)C(=O)N[C@@H](CCCCN)C(=O)N[C@H](C(=O)N[C@@H](CCC(=O)O)C(=O)NCC(=O)O)[C@@H](C)O [thioacetyl-lysine p53 peptide, H2N-KKGQSTSRHK(ThAcK)LMFKTEG-COOH]
dethioacetylation by HeLa nuclear extracts [1]: no detectable dethioacetylation
dethioacetylation by HeLa nuclear extracts ([1]; listed as thioacetyl-lysine peptide): did not serve as a substrate

Molecule: AcNH—RH(AcK)—(AcK)—CONH2
kobs (deacetylation by HeLa nuclear extracts) [1]: 0.29±0.02 uM/(min·4 uL of the nuclear extracts)

Molecule: AcNH—RH(ThAcK)(ThAcK)—CONH2
dethioacetylation by HeLa nuclear extracts [1]: no detectable dethioacetylation

Molecule: acetyl-lysine p53 peptide: human p53 C-terminal peptide (amino acid residue 372-389) containing Nε-acetyl-lysine at the 382 position (KKGQSTSRHKK(Ac)LMFKTEG; UniProt P04637 372-389, looked up, fragment)
kobs (deacetylation by HeLa nuclear extracts) [1]: 0.23±0.01 uM/(min·4 uL of the nuclear extracts)
substrate turnover ([1]; 4 uL of the HeLa nuclear extracts (9 mg of protein per mL)): 2.3%
substrate turnover ([1]; 12 uL of the HeLa nuclear extracts (9 mg of protein per mL)): 6.5%
kobs (deacetylation by HDAC1) (purified human HDAC1; purified HDAC1, at 2 h): 0.41 ± 0.23 min⁻¹
kobs (deacetylation by HDAC2) (purified human HDAC2; purified HDAC2, at 30 min): 6.78 ± 2.39 min⁻¹
